Assay results taken from PMC7663272, “Discovery of Tricyclic Pyranochromenone as Novel Bruton’s Tyrosine Kinase Inhibitors with In Vivo Antirheumatic Activity” (International Journal of Molecular Sciences, 2020).

Legend:
ERBB4 = target: T1, ERBB4 (Homo sapiens, UniProt Q15303); assay: HotSpot kinase enzymatic assay, ERBB4; format: biochemical
T1 construct: purchased Reaction Biology Corporation
Description: Therefore, efforts have focused on developing new compounds with good selectivity profiles. […] Compound 8 was selective against BTK. The biochemical activities of compound 8 differed among TEC family kinases. […] The inhibitory potential of compound 8 differed between members of the EGFR family. […] The inhibitory activity of compound 8 against JAK3 was also low.
Kinase enzymatic assays for BTK, BMX, TXK, TEC, ITK, EGFR, ERBB2, ERBB4, and JAK3 were performed at Reaction Biology Corporation (www.reactionbiology.com, Malvern, PA, USA) using the HotSpot assay platform. Briefly, specific kinase/substrate pairs and the required cofactors were prepared in a reaction buffer comprising 20 mM HEPES (pH 7.5), 10 mM MgCl2, 1 mM EGTA, 0.02% Brij35, 0.02 mg/mL BSA, 0.1 mM Na3VO4, 2 mM DTT, and 1% DMSO. The compounds were added to the reaction mixture and allowed to incubate. Approximately 20 min later, a mixture of ATP (Sigma-Aldrich, St. Louis, MO, USA) and ^33P ATP (PerkinElmer, Waltham, MA, USA) was added to the reaction mixture at a final concentration of 10 μM. The reactions were performed at room temperature for 120 min; subsequently, the reactions were spotted onto P81 ion exchange filter papers (Whatman Inc., Maidstone, UK). Any unbound phosphate was removed by thoroughly washing the filter papers with 0.75% phosphoric acid. […]

[1] = GIT-PAMPA in vitro permeability assay; format: in vitro ADME
Description: GIT-PAMPA was performed according to the manufacturer’s instructions (Pion Inc., Billerica, MA, USA). Briefly, the test compound was diluted in donor buffer (pH 7.4) to obtain a concentration of 50 μM. Then, 200 μL of this solution was added to the lower part of a 96-well PAMPA sandwich plate. The transmembrane side of the donor part was coated with a GIT-0 lipid solution, and 200 μL of the acceptor buffer was added to the upper part of the PAMPA sandwich plate. After incubating for 4 h at 25 °C, each sample was transferred to a fresh UV plate, after which the UV spectra were measured at wavelengths of 250–498 nm, and the permeability rate (Pe, 10^−6 cm/sec) was analyzed using the Pion PAMPA Explorer software (version 3.8, Pion Inc., Billerica, MA, USA).

CYP2D6 = target: T2, CYP2D6 (Homo sapiens, UniProt P10635); assay: P450-Glo CYP inhibition assay, CYP2D6; format: in vitro ADME
T2 construct: purchased Promega V9890
Description: The potential for CYP450 inhibition (CYP1A2, 2C9, 2C19, 2D6, and […]) was assessed using Promega P450-Glo^TM CYP450 assay systems. Luciferin-ME served as the substrate for CYP1A2, and the inhibitor α-naphthoflavone was used as a positive control. Luciferin-H was used as the substrate for CYP2C9, and the inhibitor sulfaphenazole was used as a positive control. Luciferin-H EGE was selected as the substrate for CYP2C19, whereas the inhibitor amitriptyline served as a positive control. Luciferin-ME EGE was used as the substrate for CYP2D6, whereas the inhibitor quinidine served as a positive control. Luciferin-BE was used as the substrate for CYP3A4, whereas the inhibitor ketoconazole was used as a positive control. The assays were performed using the excitation and emission wavelengths recommended by the manufacturer. Briefly, a CYP enzyme and a P450-Glo™ substrate were combined in potassium phosphate (0.1 M KPO4) buffer, with or without a test compound of interest, and […]. The reaction was initiated by adding two volumes of 2 times concentrated NADPH regeneration system. […] Luminescence was subsequently measured using a Tecan Infinite M1000 PRO microplate reader (Tecan Group Ltd., Switzerland). The percent inhibition was calculated relative to that of the positive control at a fixed concentration. […]

[2] = test system: collagen-induced arthritis (CIA); assay: Murine model of collagen-induced arthritis (CIA); format: in vivo
Description: The in vivo efficacy of compound 8 was evaluated in a murine inflammatory model of collagen-induced arthritis (CIA). The study included four groups: a vehicle-treated control group and three treatment groups. The treatment groups comprised a dexamethasone-treated group, in which dexamethasone served as the positive control, and two treatment groups, in which animals were treated with compound 8 at doses of 10 and 50 mg/kg. Compound 8 was administered once daily for 15 days by oral gavage, and the in vivo efficacy was evaluated by measuring the clinical score and foot volume. […] There were no significant changes in the body weights of animals in all the treatment groups (data not shown) during treatment.
The animal study was approved by the Institutional Animal Care and Use Committee (IACUC) of the Korea Research Institute of Bioscience and Biotechnology on March 15, 2017, under approval number KRIBB-AEC-17090. Male DBA1/JNCrli mice (7 weeks old) were purchased from Japan CRL, Inc. The mice were housed in specific pathogen-free (SPF) conditions and were allowed ad libitum access to food and water. After 7 days of acclimatization, the mice were immunized with 0.05 mL of a type II collagen emulsion (Hooke Kit^TM Chicken Collagen, Cat. No. EK-0210 from Hooke) and Freund’s complete adjuvant by subcutaneous injection at 1.5 cm distal from the base of the tail. After 21 days, the immunized mice were administered a booster injection with 0.05 mL of a type II collagen emulsion (Hooke Kit^TM Chicken Collagen, Cat. No. EK-0211 from Hooke) and Freund’s incomplete adjuvant. The emulsions were prepared according to the manufacturer’s instructions. On day 21, the mice with CIA were randomized into four groups. The animals in the four groups were administered either 0.3 mg/kg dexamethasone (n = 5), 10 mg/kg compound 8 (n = 5), 50 mg/kg compound 8 (n = 5), or vehicle (n = 5), once a day, for […], orally. The vehicle, in which all test compounds were suspended, comprised DMAC (10%), Tween 80 (10%), and DW (80%). Clinical arthritis scores and body weights were assessed three times per week for 15 days. The paw volumes were measured using a LE7500 plethysmometer (Panlab, Barcelona, Spain) on days 0 and 42.

T2 sequence (P10635 whole entry): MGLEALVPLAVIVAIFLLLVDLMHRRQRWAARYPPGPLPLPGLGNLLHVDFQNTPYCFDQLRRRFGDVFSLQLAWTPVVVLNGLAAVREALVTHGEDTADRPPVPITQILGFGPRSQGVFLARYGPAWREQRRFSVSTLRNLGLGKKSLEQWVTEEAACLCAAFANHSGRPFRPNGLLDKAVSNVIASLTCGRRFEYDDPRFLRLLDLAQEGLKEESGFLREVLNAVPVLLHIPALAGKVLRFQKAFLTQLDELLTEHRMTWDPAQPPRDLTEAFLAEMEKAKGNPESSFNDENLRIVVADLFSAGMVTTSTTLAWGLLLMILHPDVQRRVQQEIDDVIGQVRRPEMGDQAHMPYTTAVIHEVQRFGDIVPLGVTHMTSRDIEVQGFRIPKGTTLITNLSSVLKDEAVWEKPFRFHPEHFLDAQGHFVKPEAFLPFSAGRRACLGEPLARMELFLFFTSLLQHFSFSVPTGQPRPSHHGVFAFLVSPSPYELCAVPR
T1 sequence (Q15303 26-1308): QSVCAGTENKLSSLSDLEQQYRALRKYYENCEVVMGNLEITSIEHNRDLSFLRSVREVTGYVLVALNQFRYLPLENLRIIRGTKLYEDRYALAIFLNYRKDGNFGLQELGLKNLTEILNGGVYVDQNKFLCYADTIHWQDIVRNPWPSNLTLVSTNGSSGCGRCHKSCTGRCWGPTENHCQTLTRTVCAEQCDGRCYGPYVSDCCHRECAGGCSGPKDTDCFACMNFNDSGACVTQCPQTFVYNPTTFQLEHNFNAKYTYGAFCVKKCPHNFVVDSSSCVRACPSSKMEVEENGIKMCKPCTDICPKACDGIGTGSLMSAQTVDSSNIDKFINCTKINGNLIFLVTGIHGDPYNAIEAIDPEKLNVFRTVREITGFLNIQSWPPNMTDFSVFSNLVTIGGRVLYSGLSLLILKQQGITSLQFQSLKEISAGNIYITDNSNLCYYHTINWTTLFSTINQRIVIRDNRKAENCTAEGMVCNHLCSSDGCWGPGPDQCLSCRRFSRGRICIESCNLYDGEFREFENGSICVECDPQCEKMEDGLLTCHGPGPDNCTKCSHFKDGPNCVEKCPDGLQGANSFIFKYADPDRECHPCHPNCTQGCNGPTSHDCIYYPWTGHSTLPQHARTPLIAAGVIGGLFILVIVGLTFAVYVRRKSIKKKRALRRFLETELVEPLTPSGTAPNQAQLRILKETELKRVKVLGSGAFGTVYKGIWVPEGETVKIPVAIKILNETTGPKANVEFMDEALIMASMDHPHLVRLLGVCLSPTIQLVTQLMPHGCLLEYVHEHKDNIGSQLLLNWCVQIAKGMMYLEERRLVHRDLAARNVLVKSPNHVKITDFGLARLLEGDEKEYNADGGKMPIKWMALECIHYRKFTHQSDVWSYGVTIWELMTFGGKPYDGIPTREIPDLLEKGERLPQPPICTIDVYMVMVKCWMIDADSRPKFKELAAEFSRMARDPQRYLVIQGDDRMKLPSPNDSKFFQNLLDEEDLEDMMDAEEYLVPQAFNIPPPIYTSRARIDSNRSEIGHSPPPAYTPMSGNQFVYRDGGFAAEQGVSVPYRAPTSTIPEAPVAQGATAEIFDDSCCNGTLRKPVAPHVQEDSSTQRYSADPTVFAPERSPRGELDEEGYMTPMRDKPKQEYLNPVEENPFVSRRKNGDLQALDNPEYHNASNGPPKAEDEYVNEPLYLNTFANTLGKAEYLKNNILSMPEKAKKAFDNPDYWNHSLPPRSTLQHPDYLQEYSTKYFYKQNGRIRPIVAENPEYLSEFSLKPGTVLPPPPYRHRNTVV

## C=CC(=O)O[C@H]1Cc2cc3ccc(=O)oc3cc2OC1(C)C [Compound 8, (7S)-(+)-Acrylic acid, 8,8-dimethyl-2-oxo-6,7-dihydro-2H,8H-pyrano [3,2-g]chromen-7-yl ester]
ERBB4
  inhibitory activity against ERBB4 (in words): inactive
[1]
  permeability (in words): excellent
CYP2D6
  CYP2D6 inhibition (in words): weakly inhibited
CYP2D6; % inhibition of human CYP isozymes at 10 μM
  CYP inhibition 2D6: 18.9%
[2]; mice with CIA, 10 and 50 mg/kg oral
  toxicity: no obvious toxicity
[2]; mice, 50 mg/kg oral, dexamethasone 0.3 mg/kg
  efficacy compared with dexamethasone: comparable to that of dexamethasone at 0.3 mg/kg
[2]; mice, 10 and 50 mg/kg, daily oral, t-test
  clinical scores vs control: differed significantly from those with the control
[2]; mice, 10 and 50 mg/kg, once daily, oral gavage, 15 days
  severity of CIA (clinical score and foot volume): significantly reduced the severity of CIA in a dose-dependent manner
